Measured values: PubChem BioAssay (NCI)
Values joined by “and” are separate entries in the source; they are usually repeats but may differ in a detail not shown here. Identical values can stand only once.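 Values below derive from 48-hour exposures of cells grown in 96-well plates, with endpoints linearly interpolated between the two concentrations bracketing the appropriate inhibition level. Here, GI50 denotes the concentration required for 50% inhibition of growth. TGI: total growth inhibition.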

Key:
Experiment in all cases: inhibition of tumour cell growth, NCI panel, 48 h
[1] = tested on: SK-MEL-2 melanoma
[2] = tested on: K-562 leukemia
[3] = tested on: IGROV1 ovarian
[4] = tested on: NCI-H23 lung
[5] = tested on: UO-31 renal
[6] = tested on: SNB-75 CNS
[7] = tested on: MALME-3M melanoma
[8] = tested on: CAKI-1 renal
[9] = tested on: 786-0 renal
[10] = tested on: NCI/ADR-RES ovarian

## CC12CCC3C(CCC4CC(OC(=O)Cc5ccc(N(CCCl)CCCl)cc5)CCC43C)C1CCC(=O)N2 (configuration not stated)
[1]
  TGI: 29.8 µM
[2]
  TGI: 35.3 µM
[3]
  TGI: 31 µM
[4]
  TGI: 25.8 µM
[5]
  TGI: 33.9 µM
[6]
  TGI: 28.9 µM
[7]
  TGI: 32.9 µM
[8]
  TGI: 29.5 µM
[9]
  TGI: 28.8 µM

## C(/C=C(\Nc1ccccc1)C12CC3CC(CC(C3)C1)C2)=Nc1ccccc1
[2]
  TGI: 35.1 µM
[3]
  TGI: 36.5 µM
[4]
  TGI: 36.8 µM
[5]
  TGI: 29.3 µM
[6]
  TGI: 46.4 µM
[10]
  TGI: 42.5 µM
[7]
  TGI: 36.9 µM
[8]
  TGI: 29.5 µM
[9]
  TGI: 29.3 µM

## Cn1ccnc1C(O)(c1nccn1C)c1nccn1C
[1]
  TGI: > 100 µM
[4]
  TGI: > 100 µM
[5]
  TGI: > 100 µM
[6]
  TGI: > 100 µM
[7]
  TGI: > 100 µM
[8]
  TGI: > 100 µM

## O=C1CC(C(O)(C(F)(F)F)C(F)(F)Cl)CCC1C(O)(C(F)(F)F)C(F)(F)Cl (configuration not stated)
[1]
  TGI: > 10 µM
[2]
  TGI: > 10 µM
[3]
  TGI: > 10 µM
[4]
  TGI: > 10 µM
[6]
  TGI: > 10 µM
[10]
  TGI: > 10 µM
[7]
  TGI: > 10 µM
[8]
  TGI: > 10 µM
[9]
  TGI: > 10 µM

## O=C(NCCCN(CCCCN(CCCNC(=O)C(F)(F)F)Cc1ccc2ccccc2c1)Cc1ccc2ccccc2c1)C(F)(F)F
[1]
  TGI: > 100 µM
[2]
  TGI: 7.34 µM
[3]
  TGI: > 100 µM
[5]
  TGI: > 100 µM
[6]
  TGI: > 100 µM
[10]
  TGI: > 100 µM
[9]
  TGI: > 100 µM

## Cc1ccc(CC[P+](=O)CCc2ccc(C)nc2)cn1
[2]
  TGI: > 100 µM
[3]
  TGI: > 100 µM
[4]
  TGI: > 100 µM
[10]
  TGI: > 100 µM
[7]
  TGI: > 100 µM
[8]
  TGI: > 100 µM
[9]
  TGI: > 100 µM

## O=C(Oc1cc(=O)c(OC(=O)c2ccccc2)co1)c1ccccc1
[1]
  TGI: > 100 µM
[3]
  TGI: > 100 µM
[4]
  TGI: > 100 µM
[5]
  TGI: > 100 µM
[6]
  TGI: > 100 µM
[10]
  TGI: > 100 µM
[7]
  TGI: > 100 µM
[8]
  TGI: > 100 µM
[9]
  TGI: > 100 µM

## S=C(/N=c1\sc(Nc2ccc(Cl)cc2)nc2sc3c(c12)CCN(N1CCc2c(sc4nc(Nc5ccc(Cl)cc5)s/c(=N\C(=S)Nc5ccc(Cl)cc5)c24)C1)C3)Nc1ccc(Cl)cc1
[1]
  TGI: 52.2 µM
[3]
  TGI: > 100 µM
[4]
  TGI: > 100 µM
[5]
  TGI: > 100 µM
[6]
  TGI: 64.5 µM
[10]
  TGI: > 100 µM
[7]
  TGI: > 100 µM
[9]
  TGI: 31.9 µM

## O=C(Cc1ccccc1)NN1C(=O)/C(=C\c2ccccc2)SC1=Nc1ccccc1
[1]
  TGI: > 100 µM
[3]
  TGI: > 100 µM
[4]
  TGI: > 100 µM
[5]
  TGI: > 100 µM
[6]
  TGI: > 100 µM
[10]
  TGI: > 100 µM
[9]
  TGI: > 100 µM

## CC1(C)C2CC(=O)C1(C)C(O)C2Br (configuration not stated)
[1]
  TGI: > 100 µM
[2]
  TGI: > 100 µM
[3]
  TGI: > 100 µM
[4]
  TGI: > 100 µM
[5]
  TGI: > 100 µM
[10]
  TGI: > 100 µM
[7]
  TGI: > 100 µM
[9]
  TGI: > 100 µM

## COc1c(O)c2c3c(c(C)cc(O)c3c1O)C(=O)C(O)(C(C)(C)C(C)=O)C2=O (configuration not stated)
[1]
  TGI: > 100 µM
[2]
  GI50: 34.4 µM and > 100 µM
  TGI: > 100 µM
[3]
  TGI: > 100 µM
[4]
  TGI: > 100 µM
[5]
  TGI: > 100 µM
[6]
  TGI: > 100 µM
[7]
  TGI: > 100 µM
[8]
  TGI: > 100 µM
[9]
  TGI: > 100 µM

## c1ccc2c(c1)c1c(n2CCOCCN2CCOCC2)CCCC1
[1]
  TGI: 52.4 µM
[2]
  TGI: > 100 µM
[3]
  TGI: > 100 µM
[4]
  TGI: > 100 µM
[5]
  TGI: > 100 µM
[6]
  TGI: 70.2 µM
[10]
  TGI: 54.9 µM
[7]
  TGI: 29 µM
[8]
  TGI: > 100 µM

## Cc1c(N2C(=O)C(Cl)C2c2ccc(Cl)cc2)c(=O)n(-c2ccccc2)n1C (configuration not stated)
[1]
  TGI: > 100 µM
[2]
  TGI: > 100 µM
[3]
  TGI: > 100 µM
[4]
  TGI: 85.1 µM
[5]
  TGI: > 100 µM
[10]
  TGI: > 100 µM
[7]
  TGI: > 100 µM
[8]
  TGI: > 100 µM
[9]
  TGI: > 100 µM

## CN(Cc1ccccc1)c1cc(=O)n(C)c(=O)[nH]1
[1]
  TGI: > 100 µM
[2]
  TGI: > 100 µM
[4]
  TGI: > 100 µM
[5]
  TGI: > 100 µM
[10]
  TGI: > 100 µM
[7]
  TGI: > 100 µM
[8]
  TGI: > 100 µM
[9]
  TGI: > 100 µM

## C[C@]12CC[C@@H]3c4ccc(O)cc4CC[C@H]3[C@@H]1C/C(=C\c1ccncc1)[C@@H]2O
[1]
  TGI: 37.4 µM
[3]
  TGI: 28.7 µM
[4]
  TGI: 22.5 µM
[5]
  TGI: 52.9 µM
[6]
  TGI: 23.6 µM
[10]
  TGI: 33.5 µM
[7]
  TGI: 30.9 µM
[8]
  TGI: 75.2 µM
[9]
  TGI: 80.9 µM

## CCOC(=O)c1c(-c2ccccc2)c(-c2ccccc2)cn1C
[1]
  TGI: > 10 µM
[2]
  TGI: > 10 µM
[3]
  TGI: > 10 µM
[4]
  TGI: > 10 µM
[5]
  TGI: > 10 µM
[6]
  TGI: > 10 µM
[10]
  TGI: > 10 µM
[7]
  TGI: > 10 µM
[9]
  TGI: > 10 µM

## CCN1CCCC(NCc2c3ccccc3c(CNC3CCCN(CC)C3)c3ccccc23)C1 (configuration not stated)
[1]
  TGI: 11.7 µM
[2]
  TGI: 42.6 µM
[3]
  TGI: 55.7 µM
[4]
  TGI: 34.8 µM
[5]
  TGI: 53.4 µM
[6]
  TGI: 25 µM
[10]
  TGI: 79.7 µM
[7]
  TGI: 40.9 µM
[8]
  TGI: 50 µM

## Nc1nc(N)c(N=O)c(Nc2ccc(Br)cc2)n1
[1]
  TGI: 49.6 µM
[2]
  TGI: > 100 µM
[3]
  TGI: 39.4 µM
[4]
  TGI: > 100 µM
[6]
  TGI: 40.3 µM
[7]
  TGI: 44.6 µM
[8]
  TGI: > 100 µM
[9]
  TGI: > 100 µM

## CCC1=NC(C(F)(F)F)(C(F)(F)F)N=C(N2CCOCC2)O1
[1]
  TGI: > 100 µM
[2]
  TGI: > 100 µM
[3]
  TGI: > 100 µM
[4]
  TGI: > 100 µM
[5]
  TGI: > 100 µM
[6]
  TGI: > 100 µM
[10]
  TGI: > 100 µM
[8]
  TGI: > 100 µM

## N#CC(N=Nc1ccc(Cl)cc1)c1nc2ccccc2o1 (configuration not stated)
[1]
  TGI: 88.7 µM
[2]
  TGI: 50.2 µM
[4]
  TGI: 98.2 µM
[5]
  TGI: > 100 µM
[10]
  TGI: > 100 µM
[7]
  TGI: > 100 µM
[8]
  TGI: > 100 µM
[9]
  TGI: > 100 µM

## Cc1cn(-c2cc(C(=O)Nc3cccc(-n4ccc5c(NC(=O)c6ccccc6)nccc54)c3)cc(C(F)(F)F)c2)cn1
[1]
  GI50: 0.342 µM
  TGI: 11.9 µM
[2]
  GI50: 0.292 µM
[3]
  GI50: 0.6 µM
  TGI: 23 µM
[4]
  GI50: 1.06 µM
  TGI: 19.9 µM
[5]
  GI50: 1.1 µM
  TGI: 14.9 µM
[6]
  GI50: 0.252 µM
  TGI: 3.27 µM
[10]
  GI50: 1.13 µM
  TGI: > 33.4 µM
[7]
  GI50: 0.502 µM
  TGI: 9.66 µM
[8]
  GI50: 0.52 µM
  TGI: 2.99 µM

## O=C(Nc1ccccc1F)c1cc2ccc(O)cc2oc1=Nc1ccccc1F
[1]
  TGI: 4.05 µM
[2]
  TGI: 7.64 µM
[3]
  TGI: 4.13 µM
[4]
  TGI: 4.52 µM
[5]
  TGI: 3.56 µM
[10]
  TGI: 5.93 µM
[7]
  TGI: 3.44 µM
[8]
  TGI: 4.46 µM
[9]
  TGI: 3.34 µM

## CCOC(=O)C1(C(=O)OCC)COS(=O)OC1
[2]
  TGI: > 100 µM
[4]
  TGI: > 100 µM
[5]
  TGI: > 100 µM
[6]
  TGI: > 100 µM
[10]
  TGI: > 100 µM
